# Where no end group is shown, it is not given here. [ ]: non-standard residue; d: D form.
# What was measured:
# [1] = tested on: collagen I; assay: Expression of intracellular collagen I in human fibroblasts by flow cytometry; assay type: cell-based; conditions: untreated = 100
# Method: Protocol: Cultured human fibroblasts were treated with hexapeptide-2 in a concentration of 0.5 and 1 μM after dilution in a culture medium, for 48 hours (2 applications per day). At the same time, fibroblasts were treated with an activator for collagen I: TGF-β (R&D system, Ref. 240B). The fibroblasts were trypsinated and the cellular pellet was recovered. The cells were then fixed with cold methanol for 15 minutes at 4° C. Immunolabelling was carried out with the aid of a mouse monoclonal antibody specific for collagen I (Millipore, Ref: anti-Collagen Type I, Clone: 5D8-G9) coupled with a fluorochrome. Next, 10 000 cells were analysed by flow cytometry (Guava EasyCyte) in order to determine the amount of fluorescence in each of them.
# [2] = tested on: prolidase; assay: Activity of prolidase in human fibroblasts (Gly-Pro substrate, Chinard's reagent); assay type: cell-based; conditions: untreated = 100
# Method: Protocol: Cultured human fibroblasts were treated with hexapeptide-2 in a concentration of 0.5 and 1 μM after dilution in a culture medium, for 24 hours (2 applications per day). At the same time, fibroblasts were treated with an activator and an inhibitor of prolidase: retinoic acid (Sigma, Ref. R2625) and Cpz-Pro (Bachem, Ref. 4001343). Next, the cells were detached from the dish with the aid of a 150 mM NaCl solution. After having recovered the cellular pellet and activating the prolidase with a solution containing 2 mM MnCl2 for 2 hours at 37° C., the prolidase substrate was added: 47 mM of Glycine-Proline (Sigma, Ref. G3002) for 1 hour at 37° C. Next, the amount of proline contained in each sample was determined at a wavelength of 515 nm using Chinard's reagent. At the same time, a proline concentration range was produced in order to establish a calibration curve. The amount of protein was determined using the BCA protein assay kit (Thermo Scientific, Ref. 23225), which enabled the ratio of proline to the number of proteins in each sample to be recorded.
# [3] = tested on: collagen III; assay: Expression of collagen III in human skin in ex vivo culture; assay type: cell-based; conditions: 48 hours, untreated = 100
# Method: (§1) Protocol: Samples of human skin were cultured at the air/liquid interface. Hexapeptide-2 was applied topically to the samples in concentrations of 0.5 and 1 μM after dilution in a culture medium, in an amount of 2 applications per day, then the samples were incubated for 48 hours at 37° C.
# (§2) These skin samples were subsequently fixed with formaldehyde then included into paraffin. 4 μm sections were then produced.
# (§3) Labelling of the collagens I and III was then carried out after demasking specific sites by microwave incubation then by treatment with trypsin. The immunolabelling was carried out with the aid of a rabbit polyclonal antibody specific for collagen I (Rockland, Ref. 600-401-103-0.5), a rabbit polyclonal antibody specific for collagen III (Rockland, Ref 600-401-105-0.5), then an anti-rabbit secondary antibody coupled to a fluorochrome (Invitrogen, Ref. A21206). The cells were then examined under an epifluorescence microscope (Zeiss Axiovert 200M microscope). A quantification of the fluorescence from the photographs obtained was carried out.
# [4] = tested on: collagen; conditions: concentrations of 1 μM, 10 μM and 100 μM; cited from earlier work
# [5] = tested on: miRNA-29a 3p; assay: Expression of miRNA-29a 3p in human fibroblasts made senescent by replicative senescence (long-term treatment); assay type: cell-based
# Method: Protocol: Human fibroblasts were cultured in a specific medium and maintained under a long-term culture treatment (for more than 24 passes, i.e. approximately 3 months), treated or not treated by means of a daily application of hexapeptide-2 in a concentration of 1 μM in culture medium, (5 applications per week). For each pass, a portion of the cells was frozen. Next, three passes were selected: passes 4, 12 and 24.
# The miRNAs were extracted with the aid of an extraction kit (Ambion, Ref AMI1561), then reverse transcribed with a specific kit (Applied Biosystems, Ref 4374966). A real-time PCR was carried out in a thermocycler with the aid of a TaqMan Gene Expression Assay specific for miRNA-29a 3p (Applied Biosystems, 002112) and a TaqMan Gene Expression Assay specific for RNU44 used as an endogenic control (Applied Biosystems, 001094). The relative quantification of the expression of miRNA-29a 3p was carried out using the comparative Ct method.
# [6] = tested on: human fibroblasts made senescent by replicative senescence; assay: Activity of β-galactosidase in human fibroblasts made senescent by replicative senescence (long-term treatment); assay type: cell-based; conditions: 1 μM daily, long-term (about 3 months), general over passes
# Method: Protocol: Human fibroblasts were cultured in a specific medium and maintained under culture (for more than 27 passes) and treated or not treated with a daily application of hexapeptide-2 in a concentration of 1 μM in the culture medium, (i.e. 5 applications per week). A portion of the cells was frozen in each pass. Next, key passes were selected: passes 4, 12, 16, 20, 24 and 27. After freezing, the senescent phenotype of the fibroblasts treated or not treated with 1 μM hexapeptide-2 was evaluated by assaying the activity of β-galactosidase.
# (§4) To this end, the cells were rinsed and fixed in a fixing buffer (0.2% glutaraldehyde, 2% formaldehyde). The cells were then incubated, at 37° C. without CO2 for 24 hours, with a solution of 1 mg/mL X-Gal in 40 mM of citric acid/phosphate (pH 6), 5 mM K3FeCN6, 5 mM K4FeCN6, 150 mM NaCl and 2 mM MgCl2. The cells were then examined under white light with a microscope (Nikon Eclipse E600 microscope).
# [7] = tested on: miRNA-29a 3p; assay: Expression of miRNA-29a 3p in human fibroblasts from donors of different ages (qPCR); assay type: cell-based; conditions: overnight, concentration (0.5 or 1 μM) not stated
# Method: Protocol: Human fibroblasts from 3 donors were treated with hexapeptide-2 in a concentration of 0.5 and 1 μM in culture medium overnight (1 application).
# The miRNAs were extracted with the aid of an extraction kit (Ambion, Ref. AM1561), then reverse transcribed with a specific kit (Applied Biosystem, Ref 4374966). A real time PCR was carried out in a thermocycler using a TaqMan Gene Expression Assay specific for miRNA-29a 3p (Applied Biosystems, Ref 002112) and a TaqMan Gene Expression Assays specific for RNU44 used as the control endogen (Applied Biosystems, Ref. 001094). The relative quantification if the expression of miRNA-29a 3p was carried out by the comparative Ct method.
# [8] = tested on: collagen I; assay: Expression of collagen I in human skin in ex vivo culture; assay type: cell-based; conditions: 48 hours, untreated = 100
# Method: as §1, §2, §3
# [9] = tested on: human fibroblasts made senescent by transfection with the siRNA FOXO3a; assay: Activity of β-galactosidase in human fibroblasts made senescent by transfection with the siRNA FOXO3a; assay type: cell-based; conditions: 1 μM, 48 hours, siRNA FOXO3a transfected cells; results not shown
# Method: Protocol: Cultured human fibroblasts were treated or not treated with a specific siRNA of FOXO3a (Invitrogen, Ref. HSS177176) in a final concentration of 25 nM using the technique of transfection by Lipofectamine™ RNAiMAX (Invitrogen, Ref 56531) and treated or not treated with hexapeptide-2 in a final concentration of 1 μM in culture medium, for 48 hours (2 applications per day).
# as §4, with “The” for “To this end, the”, “incubated” for “incubated,”
# [10] = tested on: prolidase; assay: Expression of prolidase in human fibroblasts (immunofluorescence); assay type: cell-based; conditions: 24 hours, 2 applications per day, untreated = 100
# Method: Protocol: Cultured human fibroblasts were treated with hexapeptide-2 in a final concentration of 0.5 and 1 μM after dilution in a culture medium, for 24 hours (2 applications per day). The cells were then washed, fixed with cold methanol for 4 minutes at 4° C. The cells were incubated in the presence of a mouse monoclonal antibody specific for prolidase (LifeSpan BioSciences, Ref. LS-C115644), then of an anti-mouse secondary antibody coupled to a fluorochrome (Invitrogen, Ref. A21202). The cells were then examined under an epifluorescence microscope (Zeiss Axiovert 200M microscope). Quantification of the fluorescence was carried out from the photographs obtained.
# [11] = tested on: prolidase; assay: Activity of prolidase in human fibroblasts made senescent by replicative senescence (long-term treatment); assay type: cell-based; conditions: 1 μM daily long-term
# Method: Protocol: Human fibroblasts were cultured in a specific medium and maintained under long-term culture treatment (for more than 20 passes, i.e. approximately 3 months), treated or not treated with the aid of a daily application of hexapeptide-2 in a concentration of 1 μM in culture medium, (5 applications per week). A portion of the cells was frozen for each pass. Next, two passes were selected: passes 12 and 20.
# To this end, the cells were detached from their support with a solution of 150 mM NaCl. After recovering the cellular pellet and activating the prolidase with a solution containing 2 mM of MnCl2 for 2 hours at 37° C., the substrate for the prolidase was added: 47 mM of Glycine-Proline (Sigma, Ref. G3002), for 1 hour at 37° C. Next, the proline content contained in each sample was determined at a wavelength of 515 nm using Chinard's reagent. At the same time, a concentration range for proline was produced in order to establish a calibration curve. The protein content was determined using the BCA protein assay kit (Thermo Scientific, Ref. 23225), in order to relate the proline content with the number of proteins in each sample.
# [12] = tested on: collagen I; assay: Expression of collagen I in human fibroblasts made senescent by transfection with the siRNA FOXO3a; assay type: cell-based; conditions: 0.5 or 1 μM, 48 hours, siRNA FOXO3a transfected cells
# Method: Protocol: Cultured human fibroblasts were treated or not treated with a specific siRNA of FOXO3a (Invitrogen, Ref. HSS177176) in a final concentration of 25 nM using the technique of transfection by Lipofectamine™ RNAiMAX (Invitrogen, Ref. 56531) and treated or not treated with hexapeptide-2 in a concentration of 0.5 or 1 μM in culture medium, for 48 hours (2 applications per day).
# The fibroblasts were trypsinated and the cellular pellet was recovered. The cells were then fixed with cold methanol for 15 minutes at 4° C. Immunolabelling was carried out with the aid of a mouse monoclonal antibody specific for collagen I (Millipore, Ref. anti-Collagen Type I, Clone: 5D8-G9) coupled with a fluorochrome. Next, 10 000 cells were analysed using flow cytometry (Guava EasyCyte) in order to determine the level of fluorescence in each of them.
# [13] = tested on: senescent human fibroblasts by replicative senescence; assay: Activity of β-galactosidase in senescent human fibroblasts by replicative senescence (short-term treatment); assay type: cell-based; conditions: 1 μM, 48 hours, general over passes
# Method: Protocol: Human fibroblasts were cultured in a specific medium and maintained under long-term culture treatment (for more than 28 passes, i.e. approximately 3 months). A portion of the cells was frozen in each pass. Next, key passes were selected: passes 4, 12, 16, 20 and 28. After freezing, the fibroblasts were treated with 1 μM hexapeptide-2 in culture medium, for 48 hours (2 applications per day). The senescent phenotype of the fibroblasts treated or not treated with 1 μM hexapeptide-2 was evaluated by assaying the activity of the β-galactosidase.
# as §4
molecule,measurement,setting,value
"TGF-β: activator for collagen I (R&D system, Ref. 240B)",Expression of collagen I (%),[1]; 10 ng/ml,182%
"CC1=C(/C=C/C(C)=C/C=C/C(C)=C/C(=O)O)C(C)(C)CCC1 [retinoic acid, reference compound]",Activity of prolidase (%),"[2]; 1 μM, 24 hours",105%
His-D-Trp-Ala-Trp-D-Phe-Lys-NH2 (H[dW]AW[dF]K-NH2) [hexapeptide-2],Expression of Collagen III (%),[3]; 0.5 μM topical,155%
same,Expression of Collagen III (%),[3]; 1 μM topical,155%
same,effect on the secretion of collagen by fibroblasts cultured in vitro,[4],no effect
same,Expression of collagen I (%),"[1]; 0.5 μM, 48 hours",120%
same,Expression of collagen I (%),"[1]; 1 μM, 48 hours",145%
same,effect on the expression of miRNA-29a 3p,"[5]; pass 4, 1 μM daily long-term",no effect
same,reduction in the expression of miRNA-29a 3p,"[5]; pass 12, 1 μM daily long-term",−16%
same,reduction in the expression of miRNA-29a 3p,"[5]; pass 24, 1 μM daily long-term",−7%
same,reduction in the activity of beta-galactosidase compared with untreated cells,[6],−22%
same,Activity of prolidase (%),"[2]; 0.5 μM, 24 hours",122%
same,Activity of prolidase (%),"[2]; 1 μM, 24 hours",114%
same,reduction in the expression of miRNA-29a 3p,[7]; fibroblasts of donor one,−14%
same,reduction in the expression of miRNA-29a 3p,[7]; fibroblasts of donor three,−27%
same,reduction in the expression of miRNA-29a 3p,[7]; fibroblasts of donor two,−13%
same,Expression of collagen I (%),[8]; 0.5 μM topical,119%
same,Expression of collagen I (%),[8]; 1 μM topical,154%
same,activity of β-galactosidase linked to senescence (number of blue-stained cells),[9],visible reduction in the activity of β-galactosidase
same,Expression of prolidase (intensity/area of cells (%)),[10]; 0.5 μM,118%
same,Expression of prolidase (intensity/area of cells (%)),[10]; 1 μM,128%
same,restoration in the activity of prolidase compared with untreated control cells in the same pass,[11]; senescent cells (P20),20%
same,effect on activity of prolidase,[11]; young cells (P12),little or no effect
same,expression of collagen I in senescent cells,[12],smaller reduction in the expression of collagen I
same,reduction in the activity of the β-galactosidase compared with untreated cells,[13],−31%
"O=C(O)[C@@H]1CCCN1C(=O)OCc1ccccc1 [Cpz-Pro, reference compound]",Activity of prolidase (%),[2]; 10 mM,90%

# Reference: patent publication US11628133B2, “Uses of the peptide of sequence His-D-Trp-Ala-Trp-d-Phe-Lys-NH2 for reducing or delaying the appearance of cell senescence and signs of skin aging” (ISP INVESTMENTS LLC, priority 2015, dated 2023)
